How the values were obtained:
Assay in all cases: cells
COR-L105 = type: functional, cell-based, Homo sapiens; details: Homo sapiens, COR-L105
Description: SANGER: Inhibition of human COR-L105 cell growth in a cell viability assay.

D-392MG = type: functional, cell-based, Homo sapiens; details: Homo sapiens, D-392MG
DU-4475 = type: functional, cell-based; details: Homo sapiens
Description: SANGER: Inhibition of human DU-4475 cell growth in a cell viability assay.

EKVX = type: functional, cell-based, Homo sapiens; details: Homo sapiens, EKVX
Description: SANGER: Inhibition of human EKVX cell growth in a cell viability assay.

ES7 = type: functional, cell-based, Homo sapiens; details: Homo sapiens, ES7
Description: SANGER: Inhibition of human ES7 cell growth in a cell viability assay.

EW-13 = type: functional, cell-based; details: Homo sapiens
Description: SANGER: Inhibition of human EW-13 cell growth in a cell viability assay.

EW-24 = type: functional, cell-based; details: Homo sapiens
Description: SANGER: Inhibition of human EW-24 cell growth in a cell viability assay.

GCT = type: functional, cell-based, Homo sapiens; details: Homo sapiens, GCT
Description: SANGER: Inhibition of human GCT cell growth in a cell viability assay.

GR-ST = type: functional, cell-based; details: Homo sapiens
Description: SANGER: Inhibition of human GR-ST cell growth in a cell viability assay.

HLE = type: functional, cell-based, Homo sapiens; details: Homo sapiens, HLE
Description: SANGER: Inhibition of human HLE cell growth in a cell viability assay.

HPAF-II = type: functional, cell-based, Homo sapiens; details: Homo sapiens, HPAF-II
Description: SANGER: Inhibition of human HPAF-II cell growth in a cell viability assay.

HT = type: functional, cell-based; details: Homo sapiens
Description: SANGER: Inhibition of human HT cell growth in a cell viability assay.

Huh-7 = type: functional, cell-based, Homo sapiens; details: Homo sapiens, Huh-7
Description: SANGER: Inhibition of human HuH-7 cell growth in a cell viability assay.

J-RT3-T3-5 = type: functional, cell-based; details: Homo sapiens
Description: SANGER: Inhibition of human J-RT3-T3-5 cell growth in a cell viability assay.

KARPAS-45 = type: functional, cell-based; details: Homo sapiens
Description: SANGER: Inhibition of human KARPAS-45 cell growth in a cell viability assay.

KLE = type: functional, cell-based, Homo sapiens; details: Homo sapiens, KLE
Description: SANGER: Inhibition of human KLE cell growth in a cell viability assay.

KNS-42 = type: functional, cell-based, Homo sapiens; details: Homo sapiens, KNS-42
Description: SANGER: Inhibition of human KNS-42 cell growth in a cell viability assay.

KYSE-150 cell line = type: functional, cell-based, Homo sapiens; details: Homo sapiens, KYSE-150
Description: SANGER: Inhibition of human KYSE-150 cell growth in a cell viability assay.

KYSE-520 cell line = type: functional, cell-based, Homo sapiens; details: Homo sapiens, KYSE-520
Description: SANGER: Inhibition of human KYSE-520 cell growth in a cell viability assay.

LC-2-ad = type: functional, cell-based, Homo sapiens; details: Homo sapiens, LC-2-ad
Description: SANGER: Inhibition of human LC-2-ad cell growth in a cell viability assay.

LU-139 = type: functional, cell-based; details: Homo sapiens
Description: SANGER: Inhibition of human LU-139 cell growth in a cell viability assay.

MEG-01 = type: functional, cell-based; details: Homo sapiens
Description: SANGER: Inhibition of human MEG-01 cell growth in a cell viability assay.

MKN-28 = type: functional, cell-based, Homo sapiens; details: Homo sapiens, MKN-28
MZ1-PC = type: functional, cell-based, Homo sapiens; details: Homo sapiens, MZ1-PC
Description: SANGER: Inhibition of human MZ1-PC cell growth in a cell viability assay.

MZ2-MEL = type: functional, cell-based, Homo sapiens; details: Homo sapiens, MZ2-MEL
Description: SANGER: Inhibition of human MZ2-MEL cell growth in a cell viability assay.

NCI-H1581 = type: functional, cell-based, Homo sapiens; details: Homo sapiens, NCI-H1581
Description: SANGER: Inhibition of human NCI-H1581 cell growth in a cell viability assay.

NCI-H1792 = type: functional, cell-based, Homo sapiens; details: Homo sapiens, NCI-H1792
Description: SANGER: Inhibition of human NCI-H1792 cell growth in a cell viability assay.

NCI-H2228 = type: functional, cell-based, Homo sapiens; details: Homo sapiens, NCI-H2228
Description: SANGER: Inhibition of human NCI-H2228 cell growth in a cell viability assay.

OVCAR-4 = type: functional, cell-based, Homo sapiens; details: Homo sapiens, OVCAR-4
Description: SANGER: Inhibition of human OVCAR-4 cell growth in a cell viability assay.

RCM-1 = type: functional, cell-based, Homo sapiens; details: Homo sapiens, RCM-1
Description: SANGER: Inhibition of human RCM-1 cell growth in a cell viability assay.

RPMI-2650 = type: functional, cell-based, Homo sapiens; details: Homo sapiens, RPMI-2650
Description: SANGER: Inhibition of human RPMI-2650 cell growth in a cell viability assay.

RS4-11 = type: functional, cell-based; details: Homo sapiens
Description: SANGER: Inhibition of human RS4-11 cell growth in a cell viability assay.

SCH = type: functional, cell-based, Homo sapiens; details: Homo sapiens, SCH
Description: SANGER: Inhibition of human SCH cell growth in a cell viability assay.

SF-126 = type: functional, cell-based, Homo sapiens; details: Homo sapiens, SF-126
Description: SANGER: Inhibition of human SF126 cell growth in a cell viability assay.

SH-4 = type: functional, cell-based, Homo sapiens; details: Homo sapiens, SH-4
Description: SANGER: Inhibition of human SH-4 cell growth in a cell viability assay.

SHP77 = type: functional, cell-based, Homo sapiens, SHP-77; details: Homo sapiens, SHP77
Description: SANGER: Inhibition of human SHP-77 cell growth in a cell viability assay.

SJSA-1 = type: functional, cell-based, Homo sapiens; details: Homo sapiens, SJSA-1
Description: SANGER: Inhibition of human SJSA-1 cell growth in a cell viability assay.

SK-MEL-28 = type: functional, cell-based; details: Homo sapiens
Description: SANGER: Inhibition of human SK-MEL-28 cell growth in a cell viability assay.

SK-UT-1 = type: functional, cell-based, Homo sapiens; details: Homo sapiens, SK-UT-1
Description: SANGER: Inhibition of human SK-UT-1 cell growth in a cell viability assay.

SW13 = type: functional, cell-based, Homo sapiens; details: Homo sapiens, SW13
Description: SANGER: Inhibition of human SW13 cell growth in a cell viability assay.

SW-620 = type: functional, cell-based, Homo sapiens; details: Homo sapiens, SW-620
Description: SANGER: Inhibition of human SW620 cell growth in a cell viability assay.

SW626 = type: functional, cell-based, Homo sapiens; details: Homo sapiens, SW626
Description: SANGER: Inhibition of human SW626 cell growth in a cell viability assay.

SW756 = type: functional, cell-based, Homo sapiens; details: Homo sapiens, SW756
Description: SANGER: Inhibition of human SW756 cell growth in a cell viability assay.

SW 962 = type: functional, cell-based, Homo sapiens; details: Homo sapiens, SW 962
Description: SANGER: Inhibition of human SW962 cell growth in a cell viability assay.

A-431 = type: functional, cell-based, Homo sapiens; details: Homo sapiens, A-431
Description: SANGER: Inhibition of human A431 cell growth in a cell viability assay.

ABC-1 = type: functional, cell-based, Homo sapiens; details: Homo sapiens, ABC-1
Description: SANGER: Inhibition of human ABC-1 cell growth in a cell viability assay.

AGS = type: functional, cell-based, Homo sapiens; details: Homo sapiens, AGS
Description: SANGER: Inhibition of human AGS cell growth in a cell viability assay.

ATN-1 = type: functional, cell-based; details: Homo sapiens
Description: SANGER: Inhibition of human ATN-1 cell growth in a cell viability assay.

C-33-A = type: functional, cell-based, Homo sapiens; details: Homo sapiens, C-33-A
Description: SANGER: Inhibition of human C-33-A cell growth in a cell viability assay.

CAL-12T = type: functional, cell-based, Homo sapiens; details: Homo sapiens, CAL-12T
Description: SANGER: Inhibition of human CAL-12T cell growth in a cell viability assay.

TE-12 = type: functional, cell-based; details: Homo sapiens
Description: SANGER: Inhibition of human TE-12 cell growth in a cell viability assay.

COLO-320-HSR = type: functional, cell-based; details: Homo sapiens
Description: SANGER: Inhibition of human COLO-320-HSR cell growth in a cell viability assay.

## CN(C)C/C=C/C(=O)Nc1cc2c(Nc3ccc(F)c(Cl)c3)ncnc2cc1O[C@H]1CCOC1 [AFATINIB]
COR-L105
  IC50: 211 nM
D-392MG
  IC50: > 500 nM
DU-4475
  IC50: > 500 nM
EKVX
  IC50: > 500 nM
ES7
  IC50: > 500 nM
EW-13
  IC50: > 500 nM
EW-24
  IC50: > 500 nM
GCT
  IC50: > 500 nM
GR-ST
  IC50: > 500 nM
HLE
  IC50: 350 nM
HPAF-II
  IC50: > 500 nM
HT
  IC50: > 500 nM
Huh-7
  IC50: > 500 nM
J-RT3-T3-5
  IC50: > 500 nM
KARPAS-45
  IC50: 16.7 nM
KLE
  IC50: > 500 nM
KNS-42
  IC50: > 500 nM
KYSE-150 cell line
  IC50: > 500 nM
KYSE-520 cell line
  IC50: > 500 nM
LC-2-ad
  IC50: > 500 nM
LU-139
  IC50: 305 nM
MEG-01
  IC50: > 500 nM
MKN-28
  IC50: > 500 nM
MZ1-PC
  IC50: > 500 nM
MZ2-MEL
  IC50: > 500 nM
NCI-H1581
  IC50: > 500 nM
NCI-H1792
  IC50: > 500 nM
NCI-H2228
  IC50: > 500 nM
OVCAR-4
  IC50: > 500 nM
RCM-1
  IC50: > 500 nM
RPMI-2650
  IC50: > 500 nM
RS4-11
  IC50: > 500 nM
SCH
  IC50: > 500 nM
SF-126
  IC50: > 500 nM
SH-4
  IC50: > 500 nM
SHP77
  IC50: > 500 nM
SJSA-1
  IC50: > 500 nM
SK-MEL-28
  IC50: > 500 nM
SK-UT-1
  IC50: > 500 nM
SW13
  IC50: 162 nM
SW-620
  IC50: > 500 nM
SW626
  IC50: > 500 nM
SW756
  IC50: > 500 nM
SW 962
  IC50: > 500 nM
A-431
  IC50: 482 nM
ABC-1
  IC50: > 500 nM
AGS
  IC50: > 500 nM
ATN-1
  IC50: > 500 nM
C-33-A
  IC50: > 500 nM
CAL-12T
  IC50: > 500 nM
TE-12
  IC50: > 500 nM
COLO-320-HSR
  IC50: > 500 nM

## CN(c1ncccc1CNc1nc(Nc2ccc3c(c2)CC(=O)N3)ncc1C(F)(F)F)S(C)(=O)=O [PF-00562271]
COR-L105
  IC50: > 2560 nM
D-392MG
  IC50: > 2560 nM
DU-4475
  IC50: 2150 nM
EKVX
  IC50: > 2560 nM
ES7
  IC50: > 2560 nM
EW-13
  IC50: 1630 nM
EW-24
  IC50: > 2560 nM
GCT
  IC50: > 2560 nM
GR-ST
  IC50: > 2560 nM
HLE
  IC50: > 2560 nM
HPAF-II
  IC50: > 2560 nM
HT
  IC50: > 2560 nM
Huh-7
  IC50: > 2560 nM
J-RT3-T3-5
  IC50: > 2560 nM
KARPAS-45
  IC50: > 2560 nM
KLE
  IC50: > 2560 nM
KNS-42
  IC50: > 2560 nM
KYSE-150 cell line
  IC50: 1350 nM
KYSE-520 cell line
  IC50: > 2560 nM
LC-2-ad
  IC50: 2270 nM
LU-139
  IC50: > 2560 nM
MEG-01
  IC50: > 2560 nM
MKN-28
  IC50: > 2560 nM
MZ1-PC
  IC50: 1620 nM
MZ2-MEL
  IC50: > 2560 nM
NCI-H1581
  IC50: > 2560 nM
NCI-H1792
  IC50: > 2560 nM
NCI-H2228
  IC50: > 2560 nM
OVCAR-4
  IC50: > 2560 nM
RCM-1
  IC50: > 2560 nM
RPMI-2650
  IC50: > 2560 nM
RS4-11
  IC50: > 2560 nM
SCH
  IC50: > 2560 nM
SF-126
  IC50: > 2560 nM
SH-4
  IC50: > 2560 nM
SHP77
  IC50: > 2560 nM
SJSA-1
  IC50: > 2560 nM
SK-MEL-28
  IC50: > 2560 nM
SK-UT-1
  IC50: 1450 nM
SW13
  IC50: > 2560 nM
SW-620
  IC50: > 2560 nM
SW626
  IC50: > 2560 nM
SW756
  IC50: > 2560 nM
SW 962
  IC50: > 2560 nM
A-431
  IC50: > 2560 nM
ABC-1
  IC50: 2250 nM
AGS
  IC50: 1520 nM
ATN-1
  IC50: > 2560 nM
C-33-A
  IC50: > 2560 nM
CAL-12T
  IC50: > 2560 nM
TE-12
  IC50: > 2560 nM
COLO-320-HSR
  IC50: > 2560 nM

— ChEMBL document CHEMBL1201861, “Genomics of Drug Sensitity in Cancer screening data, Wellcome Trust Sanger Institute”
